# Source: patent US20180339963A1, “ANTICONVULSANT CARBAMATE DERIVATIVES” (Yissum Research Development Company of the Hebrew …, priority 2017, published 2018)
# Like-named read-outs stand apart in the source and are kept apart here.
# Assays:
# [1] = molecular target: T1, hCA I (Homo sapiens, UniProt P00915); test: Stopped flow CO2 hydrase assay, hCA I; type: biochemical; conditions: mean from 3 assays, read-out: K1, hCAI
# T1 construct: made in house
# Method: (§1) An Applied Photophysics stopped-flow instrument has been used for assaying the CA catalysed CO2 hydration activity. Phenol red (at a concentration of 0.2 mM) has been used as indicator, working at the absorbance maximum of 557 nm, with 20 mM Hepes (pH 7.5) as buffer, and 20 mM Na2SO4 (for maintaining constant the ionic strength), following the initial rates of the CA-catalyzed CO2 hydration reaction for a period of 10-100 s. The CO2 concentrations ranged from 1.7 to 17 mM for the determination of the kinetic parameters and inhibition constants. […] The uncatalyzed rates were determined in the same manner and subtracted from the total observed rates. Stock solutions of inhibitor (0.1 mM) were prepared in distilled-deionized water and dilutions up to 0.01 nM were done thereafter with the assay buffer. […] The inhibition constants were obtained by non-linear least-squares methods using PRISM 3 and the Cheng-Prusoff equation, as reported earlier and represent the mean from at least three different determinations. All CA isofoms were recombinant ones obtained in-house.
# [2] = molecular target: T2, hCA II (Homo sapiens, UniProt P00918); test: Stopped flow CO2 hydrase assay, hCA II; type: biochemical; conditions: mean from 3 assays, read-out: K1, hCA II
# T2 construct: made in house
# Method: as §1
# [3] = molecular target: T3, hCA IV (Homo sapiens, UniProt P22748); test: Stopped flow CO2 hydrase assay, hCA IV; type: biochemical; conditions: mean from 3 assays; for Ki: read-out: K1, hCA IV
# T3 construct: made in house
# T3 sequence (P22748 19-284): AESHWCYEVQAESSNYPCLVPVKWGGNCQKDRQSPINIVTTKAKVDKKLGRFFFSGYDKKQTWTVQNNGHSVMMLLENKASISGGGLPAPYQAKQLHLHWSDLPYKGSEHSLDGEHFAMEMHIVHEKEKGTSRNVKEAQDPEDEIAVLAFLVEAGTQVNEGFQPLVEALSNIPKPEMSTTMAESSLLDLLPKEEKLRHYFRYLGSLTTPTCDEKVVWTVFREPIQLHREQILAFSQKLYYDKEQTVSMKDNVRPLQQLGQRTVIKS
# Method: as §1
# [4] = molecular target: T4, hCA VII (Homo sapiens, UniProt P43166); test: Stopped flow CO2 hydrase assay, hCA VII; type: biochemical; conditions: mean from 3 assays, read-out: K1, hCA VII
# T4 construct: made in house
# T4 sequence (P43166 whole entry): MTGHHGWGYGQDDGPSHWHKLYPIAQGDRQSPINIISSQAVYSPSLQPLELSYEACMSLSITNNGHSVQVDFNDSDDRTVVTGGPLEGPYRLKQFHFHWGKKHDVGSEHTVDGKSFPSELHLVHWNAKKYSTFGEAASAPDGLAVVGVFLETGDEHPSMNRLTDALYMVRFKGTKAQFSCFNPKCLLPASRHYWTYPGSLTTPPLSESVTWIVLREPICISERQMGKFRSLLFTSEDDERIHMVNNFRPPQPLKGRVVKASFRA
# Method: as §1
# [5] = system: 6 Hz psychomotor seizure; test: 6 Hz psychomotor seizure test in mice; conditions: Mus musculus, ip, read-out: 6 Hz, number of mice protected/number of mice tested
# [6] = system: maximal electroshock seizure (MES); test: Maximal electroshock seizure (MES) test in mice; conditions: Mus musculus, ip; for responders at 30 mg/kg / responders at 100 mg/kg / responders at 300 mg/kg: read-out: MES, number of mice protected/number of mice tested
# [7] = system: mice; test: Neurotoxicity (minimal motor impairment, rotarod) in mice; conditions: mice i.p.
# [8] = system: maximal electroshock seizure (MES); test: Maximal electroshock seizure (MES) test in rats; conditions: Rattus norvegicus, po, read-out: MES-ED50, rats, p.o.
# T1 sequence (P00915 whole entry): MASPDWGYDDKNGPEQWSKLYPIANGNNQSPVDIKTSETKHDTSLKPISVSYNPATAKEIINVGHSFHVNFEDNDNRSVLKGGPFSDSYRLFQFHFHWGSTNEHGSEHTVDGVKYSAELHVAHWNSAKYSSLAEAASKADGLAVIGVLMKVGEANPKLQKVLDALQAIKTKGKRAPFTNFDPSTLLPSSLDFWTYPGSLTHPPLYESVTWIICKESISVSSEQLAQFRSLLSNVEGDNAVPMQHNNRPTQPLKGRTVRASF
Structure (SMILES),Ki [1] [nM],Ki [2] [nM],Ki [3] [nM],Ki [4] [nM],melting point [°C],responders at 30 mg/kg ([5]; 0.5 h) [%],responders at 100 mg/kg ([5]; 0.5 h) [%],responders at 300 mg/kg ([5]; 0.5 h) [%],responders at 30 mg/kg ([5]; 2 h) [%],responders at 100 mg/kg ([5]; 2 h) [%],responders at 300 mg/kg ([5]; 2 h) [%],responders at 30 mg/kg ([6]; 0.5 h) [%],responders at 100 mg/kg ([6]; 0.5 h) [%],responders at 300 mg/kg ([6]; 0.5 h) [%],responders at 30 mg/kg ([6]; 2 h) [%],responders at 100 mg/kg ([6]; 2 h) [%],responders at 300 mg/kg ([6]; 2 h) [%],"Tox (motor impairment or sedation), number of animals affected/number of animals tested ([7]; 30 mg/kg, 0.5 h)","Tox (motor impairment or sedation), number of animals affected/number of animals tested ([7]; 30 mg/kg, 2.0 h)","Tox (motor impairment or sedation), number of animals affected/number of animals tested ([7]; 100 mg/kg, 0.5 h)",further results
"NS(=O)(=O)c1ccc(NC(=O)OCCc2ccccc2)cc1 [Compound 5, phenethyl (4-sulfamoylphenyl)carbamate]",5.9,0.6,303,24.5,212 to 213,0,0,0,0,0,0,0,0,0,25,25,50,0/8,0/8,0/8,"K1, hCA IV [3]: medium potency inhibitors; Tox (motor impairment or sedation), number of animals affected/number of animals tested ([7]; 100 mg/kg, 2.0 h): 0/8; Tox (motor impairment or sedation), number of animals affected/number of animals tested ([7]; 300 mg/kg, 0.5 h): 0/8; Tox (motor impairment or sedation), number of animals affected/number of animals tested ([7]; 300 mg/kg, 2.0 h): 0/8"
"CC(COC(=O)Nc1ccc(S(N)(=O)=O)cc1)CC(C)(C)C (stereo not shown) [Compound 7, 2,4,4-trimethylpentyl (4-sulfamoylphenyl)carbamate]",83.5,5,2760,712,199 to 201,25,25,100,0,50,75,0,0,0,0,25,50,0/8,0/8,0/8,"Tox (motor impairment or sedation), number of animals affected/number of animals tested ([7]; 100 mg/kg, 2.0 h): 0/8; Tox (motor impairment or sedation), number of animals affected/number of animals tested ([7]; 300 mg/kg, 0.5 h): 0/8; Tox (motor impairment or sedation), number of animals affected/number of animals tested ([7]; 300 mg/kg, 2.0 h): 0/8"
"CCC(CC)COC(=O)Nc1ccc(S(N)(=O)=O)cc1 [Compound 6, 2-ethylbutyl (4-sulfamoylphenyl)carbamate]",169,5.2,1690,52,162 to 165,0,25,25,0,0,25,0,0,0,0,0,0,0/8,0/8,0/8,"Tox (motor impairment or sedation), number of animals affected/number of animals tested ([7]; 100 mg/kg, 2.0 h): 0/8; Tox (motor impairment or sedation), number of animals affected/number of animals tested ([7]; 300 mg/kg, 0.5 h): 0/8; Tox (motor impairment or sedation), number of animals affected/number of animals tested ([7]; 300 mg/kg, 2.0 h): 0/8"
"CCC(C)OC(=O)Nc1ccc(S(N)(=O)=O)cc1 (stereo not shown) [Compound 11, sec-butyl(4-sulfamoylphenyl)carbamate]",,,,,190 to 191,,,,,,,,,,,,,,,,"ED50 ([6]; read-out: MES-ED50, mice, i.p.): 75 mg/kg; ED50 [8]: 25 mg/kg"
